Laboratory results published in a melting point compilation (Tetko et al.; mined from patent text by program, amines drawn as free bases though some values may be those of a salt).

For `CC(O)(CN)c1ccc(Oc2ccc3c(c2)S(=O)(=O)NC2CCCN32)cc1` (stereo not given), the melting point was 76 to 78 °C.
`C=CCc1c(OC(C)=O)c(C)cc2ccc(=O)oc12` gave a melting point of 110 to 111 °C.
In the case of `CC(=O)OCC=C(C)CS(=O)(=O)c1ccccc1`, the melting point is reported as 86 to 92 °C.
For `Cc1cc(C(=O)NCc2cccc3c2C(=O)N(C2CCC(=O)NC2=O)C3=O)nn1C` (stereo not given), the melting point was 213 to 215 °C.
`CCOCc1nc2c(N(Cc3ccccc3)Cc3ccccc3)nc(C)cc2n1NC(=O)OC(C)(C)C` gave a melting point of 139 to 141 °C.
Work on `CN(Cc1ccc(NC(=O)C2=Cc3cc(-c4cccnc4)ccc3OCC2)cc1)C1CCOCC1` yielded a melting point of 158 to 159 °C.
For `CCOCC(O)COc1ccc(NC(=O)CCSC)cc1` (stereo not given), the melting point was 79 to 81 °C.
With `Cc1ccccc1C1CCN(C(=O)CCC(=O)c2ccc3c(c2)CCN(C(=O)C(F)(F)F)CC3)CC1` the melting point was 130 to 131 °C.
With `CCCc1ccc(S(=O)(=O)Nc2ccc3snc(NC(C)=O)c3c2)cc1` the melting point was 254 to 255 °C.
In the case of `COc1ccc2cc(-c3cncn3C)cc(C)c2n1`, the melting point is reported as 160 to 162 °C.
With `Cc1cccc(Cn2cc(C(=O)C(=O)NC3=CC(=O)OC3)c3ccccc32)c1` the melting point was 298 to 300 °C.
For `CN(c1cccc2cc(C3=NCC(C)(CN4CCOCC4)S3)[nH]c12)S(=O)(=O)c1cccs1` (stereo not given), the melting point was 146 to 147 °C.
For `CCOC(=O)Cc1sc(NC(C)=O)nc1-c1ccc(Cl)cc1`, the melting point was 187 to 188 °C.
With `O=C(O)C=C1CC(C(=O)OCc2ccccc2)Nc2cc(Cl)cc(Cl)c21` (racemic) the melting point was 210 to 212 °C.
`CC(CF)(CF)C(O)C(Oc1ccc(Cl)cc1)n1ccnc1` (stereo not given) showed a melting point of 137 °C.
Compound `O=C(C=P(c1ccccc1)(c1ccccc1)c1ccccc1)CCCCO` has a melting point of 121 to 124 °C.
For `Cc1c(C)c2c(c(C)c1NC(=O)N1CCCC1)C(c1ccc(C(C)C)cc1)CO2` (stereo not given), the melting point was 186 to 188 °C.
`CCc1cc(=O)oc2cc(O)cc(O)c12` showed a melting point of 241 to 243 °C.
Compound `COc1ccccc1N1CCN(CCCNC(=O)c2cccc3c2OC(C2CCCCC2)CC3)CC1` (stereo not given) has a melting point of 79 to 83 °C.
With `OC[C@@H]1CCc2ccc3ncccc3c2O1` the melting point was 128 °C.
Compound `COC(=O)c1ccc([N+](=O)[O-])[nH]1` has a melting point of 178 to 179 °C.
With `CC(C)(C)c1cc(C(=O)COc2ccc(C(=O)OCc3ccccc3)c(O)c2)ccc1OCc1ccccc1` the melting point was 91 to 93 °C.
Work on `CC1(C)CCC(C)(C)c2cc(C#Cc3ccc(/C=C/C(=O)O)cc3)ccc21` yielded a melting point of 256 to 258 °C.
With `Sc1c(Cl)cc(Cl)c(Cl)c1S` the melting point was 115 to 116 °C.
`COC(=O)CC(c1ccc(F)cc1)C(C#N)C(=O)OC` (stereo not given) showed a melting point of 80.2 °C.
Compound `O=S(=O)(c1ccccc1)n1ccc2c(Cl)nc(-c3ccccc3)nc21` has a melting point of 259 to 260 °C.
`Cn1nccc(N)c1=O` showed a melting point of 191 to 192 °C.
With `O=P(O)(O)CC(O)CNO` (stereo not given) the melting point was 153 to 155 °C.
Compound `CN1CCN(c2ccc3nc(-c4ccc(F)cc4)c(-c4ccncc4)n3n2)CC1` has a melting point of 250 °C.
Compound `CSc1nc(-c2ccc(C#N)cc2)cn1-c1ccc(Br)cc1` has a melting point of 188 to 190 °C.
With `c1cc(-c2ccc3[nH]cc4c3c2C[C@@H](N(CC2CC2)CC2CC2)C4)on1` the melting point was 146 to 147 °C.
`COc1ccc2c(c1)OCC(NC(=O)c1cc(Cl)ccc1OC)C2` (stereo not given) showed a melting point of 92 to 93 °C.
`Cc1[nH]c(=O)c(C#N)cc1-c1ccc(CC(=O)O)cc1` gave a melting point of 280 to 282 °C.
In the case of `OC1CCCc2nc3ccccc3c(NCc3cccc(C(F)(F)F)c3)c21` (stereo not given), the melting point is reported as 154 to 155 °C.
Work on `CSC(=NCCSCc1ccsn1)NC#N` yielded a melting point of 85 to 87 °C.
For `O=[N+]([O-])c1cc(CN2CCN(C(c3ccccc3)c3ccccc3)CC2)ccc1Cl`, the melting point was 102 °C.
In the case of `COc1cccc(NC(=O)c2cccc([N+](=O)[O-])c2)c1`, the melting point is reported as 120 to 122 °C.
`CCCC[C@H](NC(=O)C(CS)C(F)(F)F)C(=O)O` (stereo not given in full) gave a melting point of 96 to 98 °C.
For `Cc1nc2cc(F)c(C)cc2c(=O)[nH]1`, the melting point was 173 to 174 °C.
`Cc1ccc(S(=O)(=O)N2N=C(c3ccccc3)CC3CC=CC32)cc1` (stereo not given) showed a melting point of 163 to 165 °C.
`C=CCn1nc(-c2sc(C(=O)NCc3ccccn3)nc2-c2ccccc2)ccc1=O` gave a melting point of 117 to 118 °C.
In the case of `Cc1ccc(N(c2ccc(-c3ccccc3)cc2)c2ccc(C)c(C)c2)cc1`, the melting point is reported as 128 to 130 °C.
For `CCCCc1nn(-c2cc(NC(=O)CC)ccc2Cl)c(=O)n1Cc1ccc(-c2ccccc2S(=O)(=O)NC(=O)c2ccccc2Oc2ccccc2)cc1`, the melting point was 113 to 116 °C.
Work on `CCOC(=O)C1=C(C)NC(=S)N(S(=O)(=O)c2ccccc2)C1c1cccc([N+](=O)[O-])c1` (stereo not given) yielded a melting point of 162 to 164 °C.
For `CCOC(=Cc1ccc(-c2cccc(N(C)C(=O)NCCc3ccccc3)c2)cc1)C(=O)O`, the melting point was 70 °C.
With `CC(C)=CC(=O)c1sccc1O` the melting point was 32 to 33 °C.
In the case of `CCN(CC)CCSC1=C(C#N)C(c2ccccc2)(c2cccc(C(F)(F)F)c2)C(=O)N1` (stereo not given), the melting point is reported as 127 °C.
Compound `O=C(O)[C@H]1C=C[C@@H](c2ccc([N+](=O)[O-])cc2)n2c(=O)n(CCCl)c(=O)n21` (relative stereo) has a melting point of 192 to 194 °C.
With `CC(C)(C)OC(=O)NCC(=O)NNc1ccc(N)cc1` the melting point was 144 °C.
For `CCCCCCCCCCCCP(=O)(O)CCCNC(=O)OCc1ccccc1`, the melting point was 115 to 116 °C.
`O=C(Cl)N(c1ccc(F)cc1)c1ccc(F)cc1` gave a melting point of 53 to 54 °C.
With `CCCc1c(/C=C/c2cc(OC)cc(OC)c2)nc2ccc(C(=O)O)cn2c1=O` the melting point was 268 to 270 °C.
For `COc1noc2c(C)cc(C#CCCN3CCOC3=O)cc12`, the melting point was 94 to 95 °C.
`C[C@@H]1S[C@@H](C(=O)O)Cc2cc3c(cc2C1=O)OCO3` showed a melting point of 192 to 193 °C.
For `Cc1cc(F)ccc1-c1ccc(S(=O)(=O)N2c3ccccc3CC2C(=O)NCc2ccccc2NCCC(=O)O)cc1` (stereo not given), the melting point was 118 to 126 °C.
With `COC(=O)c1ccc2[nH]c(=O)oc2c1` the melting point was 149 to 151 °C.
For `Cc1cccc(COc2cccc(OCc3coc(C4CCCCC4)n3)c2)c1C(=O)O`, the melting point was 158 to 159 °C.
For `Cn1cc(-c2cccc(C(F)(F)F)c2)c(=O)c(-c2ccc(F)cc2Cl)c1`, the melting point was 183 to 186 °C.
`CCOC(=O)C(=O)Nc1c([N+](=O)[O-])ccc2ncccc12` showed a melting point of 181 °C.
For `COc1ccc(NC=O)cn1`, the melting point was 81 to 83 °C.
Compound `CC(=O)SCC(=Cc1ccc2c(c1)OCO2)C(=O)NCCC(=O)OCc1ccccc1` has a melting point of 76 °C.
With `CC(C)CCCC(C)C1CCC2C3=CC=C4CC(OC(=O)c5ccccc5)CC(OC(=O)c5ccccc5)C4(C)C3CCC21C` (stereo not given) the melting point was 161 °C.
Work on `CCOC(=O)COc1c(C)cc(C(OC)(C(F)(F)F)C(F)(F)F)cc1C` yielded a melting point of 97 to 98 °C.
With `CCOC(=O)c1cc(OC)c2c(C)c(CCN(CC)CC)c(=O)oc2c1Cl` the melting point was 147 to 148 °C.
`[N-]=[N+]=C1C(=O)CC(c2ccccc2)CC1=O` (stereo not given) gave a melting point of 122 to 124 °C.
With `Nc1ccc(-c2cnc3c(c2)N(Cc2c(F)ccc(F)c2Cl)CCN3)cn1` the melting point was over 200 °C.
For `CCCCN(Cc1ccccc1)C(=O)Nc1ccc(C)cc1C`, the melting point was 70 to 71 °C.
`CCOC(=O)C(CC=C(C)C=CC1=C(C)CCCC1(C)C)C(C)=O` (stereo not given) gave a melting point of 152 °C.
In the case of `CC(O)c1ccc(-c2ccc(C(F)(F)F)cc2)cc1` (stereo not given), the melting point is reported as 116 to 117 °C.
`COc1ccc2c(c1Br)CCC=C2C#N` gave a melting point of 108 to 109 °C.
With `O=C(Nc1cccc(F)n1)c1cc(-c2ccc(Cl)cc2)nc2ccccc12` the melting point was 200 to 201 °C.
Compound `CCOC(=O)c1c(CN2CCCCC2)nc2cc(OCC)c(OCC)cc2c1-c1ccc(OC)c(OC)c1` has a melting point of 154 to 155 °C.
For `O=[N+]([O-])C1(F)C=C(OCC2CCCSC2)C(Cl)=CC1` (stereo not given), the melting point was 100 to 103 °C.
Compound `CCCCC1OC(=O)c2cc(NC(C)=O)c([N+](=O)[O-])cc21` (stereo not given) has a melting point of 167 to 169 °C.
For `Cc1cc2c(C(=O)C3=C(O)C4CCC(C4)C3=O)ccc(S(C)=O)c2o1` (stereo not given), the melting point was 243 to 244 °C.
`O=C(CCCCCCCCC(=O)OCCO)OCCO` gave a melting point of 47 °C.
Work on `CONS(=O)(=O)c1cc(Cl)ccc1Cl` yielded a melting point of 127 to 128 °C.
`C=C(C)n1cc(C(=O)O)c(=O)c2cc(F)c(Cl)cc21` showed a melting point of 229 °C.
`Cc1ccc(S(=O)(=O)N2CCC[C@H](CC#N)c3ccccc32)cc1` gave a melting point of 106 °C.
`Cc1cc(COP(N)(=O)N(CCCl)CCCl)ccc1[N+](=O)[O-]` (stereo not given) gave a melting point of 64 to 66 °C.
`COc1cccc(NC(=O)C(C#N)C(=O)c2nn(-c3ccccc3)c3c2Cc2ccccc2-3)c1` (stereo not given) showed a melting point of 280 to 284 °C.
`CSc1ccc(C2(C(C)=O)C=CC=CC2)cc1` (stereo not given) gave a melting point of 182 to 184 °C.
`C=CC(=O)OCCNC(=O)C(C)ON(C(C(C)(C)C)P(=O)(OCC)OCC)C(C)(C)C` (stereo not given) gave a melting point of 95 to 98 °C.
`NC(=NCC(F)(F)F)Nc1ccnc(CSCCN2C(=O)c3ccccc3C2=O)n1` showed a melting point of 167 to 168 °C.
Work on `CCC1C(=O)N2CCCC(C(=O)OC(C)(C)C)N2C1=O` (stereo not given) yielded a melting point of 93 to 95 °C.
`O=C(NC(CO)CO)c1ccc2cc(C(=O)O)[nH]c2c1` gave a melting point of 240 to 245 °C.
With `CCCCC[C@H]1CC[C@H](c2ccc(C#C[Si](C)(C)C)nn2)CC1` the melting point was 118 to 119 °C.
`CC(C)N1Cc2c(F)cccc2N(CCN2CC=C(c3c[nH]c4cc(F)ccc34)CC2)S1(=O)=O` gave a melting point of 107 to 109 °C.
For `CN(C)C(=O)COc1ccc2c(-c3ccccc3F)noc2c1Cl`, the melting point was 116 °C.
For `CCOC(=O)CNC(=O)c1nc2ccc(NCCCN3CCC(OC(c4ccccc4)c4ccccc4)CC3)nn2n1`, the melting point was 175 to 177 °C.
With `CCC1(C)C(=O)c2c(Cl)cc(C)c(C)c2C1=O` (stereo not given) the melting point was 97 °C.
In the case of `COC1=CC(=O)N(Cc2ncn(C(c3ccccc3)(c3ccccc3)c3ccccc3)c2C)CC1`, the melting point is reported as 181 to 184 °C.
For `Clc1ccccc1-c1cccc2c1OC(CNCC1CC1)CO2` (stereo not given), the melting point was 138 to 140 °C.
`COC(c1cc(C)no1)c1ccccc1COc1cc(Cl)ccc1Cl` (stereo not given) showed a melting point of 78.5 to 79.5 °C.
Compound `CCC(=O)c1cnc2c(OCCO)cccc2c1Nc1ccccc1C` has a melting point of 174 to 176 °C.
`Cc1nc2c([N+](=O)[O-])cc(S(=O)(=O)N(C)C)cc2n1C` gave a melting point of 194 to 196 °C.
`N#CNC(=S)Nc1cccc([N+](=O)[O-])c1` gave a melting point of over 210 °C.
In the case of `O=C(c1cccs1)c1cnn2c(-c3cccc(-c4nnn(Cc5ccccn5)n4)c3)ccnc12`, the melting point is reported as 184 °C.
Compound `O[C@@H]1CN=C(c2ccc3ccccc3c2)O[C@H]1c1ccccc1` (racemic) has a melting point of 172 °C.
For `CC1NC(=O)N(C)N=C1c1ccccc1` (stereo not given), the melting point was 99.5 to 101 °C.
